What was measured:
[1] = system: DU-145; assay: MTT assay for cell cytotoxicity; format: cell-based, human; settings: Homo sapiens, 72 h, at least three independent experiments, read-out: MTT assay (IC50 ± SD) DU-145
Method: (§1) All of synthesis compounds were evaluated cell cytotoxicity by using MTT colorimetric assay on PC-3 and DU-145 cell lines. DU-145 and PC-3 are human hormone-refractory (androgen-independent) prostatic cancer cell lines from American Type Culture Collection (HTB-81™, ATCC, Rockville, MD)^125 and Bioresource Collection and Research Center (60122, BCRC, Taiwan)^126, respectively. Two of the "classical" cell lines were cultivated in RPMI-1640 medium supplemented with 5% fetal bovine serum (v/v), 100 U/mL penicillin, and […] streptomycin. Approximately 2 x 10^3 cells were seeded into each well of a 96-well plate and incubated in 5% CO2 at 37 °C for 24 h. To evaluate the in vitro cytotoxicity, all the synthetic compounds were dissolved in DMSO, prepared immediately before the experiments and diluted into the complete medium before being added to each well of a 96-well plate. Each compound was then added to the culture medium for designated various concentrations (0.15, 0.5, 1.5, 5, 15 µM). After 72 h, an amount of 100 µL of MTT (1 mg/mL) was added to each well, and the samples were incubated at 37 °C for 4 h. After removing the MTT solution, 100 µL of DMSO was added to each well and incubated at 37 °C for another 20 mins. The absorbency at 560 nm was measured by using an ELISA reader.
(§2) Results are expressed as mean values of at least three independent experiments. The IC50 values of testing compounds were described in Table 1. Table1. Effects of 10-Chloro-12H-thiochromeno[2,3-c]quinolin -12-one derivatives on cytotoxicity by MTT assay.

[2] = system: PC-3; assay: MTT assay for cell cytotoxicity; format: cell-based, human; settings: Homo sapiens, 72 h, at least three independent experiments, read-out: MTT assay (IC50 ± SD) PC-3
Method: as §1, §2

[3] = molecular target: T1, TOP I (Homo sapiens, UniProt P11387); assay: Topoisomerase I activity assay (DNA relaxation catalyzed by TOP I); format: biochemical; settings: primary assay at 25 and/or 50 µM
T1 construct: purchased TopoGEN TG2005H
T1 sequence (P11387 1-765): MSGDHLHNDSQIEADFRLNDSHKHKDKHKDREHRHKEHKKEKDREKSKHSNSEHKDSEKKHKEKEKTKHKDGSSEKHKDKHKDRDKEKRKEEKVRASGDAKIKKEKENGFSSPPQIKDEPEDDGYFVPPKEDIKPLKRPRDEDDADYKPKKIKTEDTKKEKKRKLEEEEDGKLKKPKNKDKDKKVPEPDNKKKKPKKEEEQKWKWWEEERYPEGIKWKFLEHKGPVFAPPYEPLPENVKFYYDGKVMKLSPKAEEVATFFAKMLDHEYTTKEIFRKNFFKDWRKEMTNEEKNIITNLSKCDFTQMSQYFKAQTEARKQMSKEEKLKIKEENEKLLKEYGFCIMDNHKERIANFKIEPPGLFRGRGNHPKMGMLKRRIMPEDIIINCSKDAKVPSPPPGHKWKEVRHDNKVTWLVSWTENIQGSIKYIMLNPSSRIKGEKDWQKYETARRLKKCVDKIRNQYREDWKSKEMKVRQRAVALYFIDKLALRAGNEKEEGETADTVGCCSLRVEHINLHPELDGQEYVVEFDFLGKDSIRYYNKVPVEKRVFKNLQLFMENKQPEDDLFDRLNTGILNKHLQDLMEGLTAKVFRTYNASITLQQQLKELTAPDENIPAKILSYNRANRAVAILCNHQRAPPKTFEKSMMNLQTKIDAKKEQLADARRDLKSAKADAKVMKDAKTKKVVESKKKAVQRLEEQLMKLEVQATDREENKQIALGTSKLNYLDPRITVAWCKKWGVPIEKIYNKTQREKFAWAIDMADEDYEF
Method: According to the cell cytotoxicity, compounds 5, 7, 8, 16, 19, N2, N7, N8, N9, N14-N19, and N25 were also selected for primary TOP I and II activities assays at 25 and/or 50 µM (Fig. 2-4).

[4] = molecular target: T2, TOP II (Homo sapiens, UniProt P11388); assay: Topoisomerase II activity assay (TOP II-catalyzed relaxation of plasmid DNA); format: biochemical; settings: primary assay at 25 and/or 50 µM
T2 construct: purchased TopoGEN TG-2000H-1
T2 sequence (P11388 whole entry): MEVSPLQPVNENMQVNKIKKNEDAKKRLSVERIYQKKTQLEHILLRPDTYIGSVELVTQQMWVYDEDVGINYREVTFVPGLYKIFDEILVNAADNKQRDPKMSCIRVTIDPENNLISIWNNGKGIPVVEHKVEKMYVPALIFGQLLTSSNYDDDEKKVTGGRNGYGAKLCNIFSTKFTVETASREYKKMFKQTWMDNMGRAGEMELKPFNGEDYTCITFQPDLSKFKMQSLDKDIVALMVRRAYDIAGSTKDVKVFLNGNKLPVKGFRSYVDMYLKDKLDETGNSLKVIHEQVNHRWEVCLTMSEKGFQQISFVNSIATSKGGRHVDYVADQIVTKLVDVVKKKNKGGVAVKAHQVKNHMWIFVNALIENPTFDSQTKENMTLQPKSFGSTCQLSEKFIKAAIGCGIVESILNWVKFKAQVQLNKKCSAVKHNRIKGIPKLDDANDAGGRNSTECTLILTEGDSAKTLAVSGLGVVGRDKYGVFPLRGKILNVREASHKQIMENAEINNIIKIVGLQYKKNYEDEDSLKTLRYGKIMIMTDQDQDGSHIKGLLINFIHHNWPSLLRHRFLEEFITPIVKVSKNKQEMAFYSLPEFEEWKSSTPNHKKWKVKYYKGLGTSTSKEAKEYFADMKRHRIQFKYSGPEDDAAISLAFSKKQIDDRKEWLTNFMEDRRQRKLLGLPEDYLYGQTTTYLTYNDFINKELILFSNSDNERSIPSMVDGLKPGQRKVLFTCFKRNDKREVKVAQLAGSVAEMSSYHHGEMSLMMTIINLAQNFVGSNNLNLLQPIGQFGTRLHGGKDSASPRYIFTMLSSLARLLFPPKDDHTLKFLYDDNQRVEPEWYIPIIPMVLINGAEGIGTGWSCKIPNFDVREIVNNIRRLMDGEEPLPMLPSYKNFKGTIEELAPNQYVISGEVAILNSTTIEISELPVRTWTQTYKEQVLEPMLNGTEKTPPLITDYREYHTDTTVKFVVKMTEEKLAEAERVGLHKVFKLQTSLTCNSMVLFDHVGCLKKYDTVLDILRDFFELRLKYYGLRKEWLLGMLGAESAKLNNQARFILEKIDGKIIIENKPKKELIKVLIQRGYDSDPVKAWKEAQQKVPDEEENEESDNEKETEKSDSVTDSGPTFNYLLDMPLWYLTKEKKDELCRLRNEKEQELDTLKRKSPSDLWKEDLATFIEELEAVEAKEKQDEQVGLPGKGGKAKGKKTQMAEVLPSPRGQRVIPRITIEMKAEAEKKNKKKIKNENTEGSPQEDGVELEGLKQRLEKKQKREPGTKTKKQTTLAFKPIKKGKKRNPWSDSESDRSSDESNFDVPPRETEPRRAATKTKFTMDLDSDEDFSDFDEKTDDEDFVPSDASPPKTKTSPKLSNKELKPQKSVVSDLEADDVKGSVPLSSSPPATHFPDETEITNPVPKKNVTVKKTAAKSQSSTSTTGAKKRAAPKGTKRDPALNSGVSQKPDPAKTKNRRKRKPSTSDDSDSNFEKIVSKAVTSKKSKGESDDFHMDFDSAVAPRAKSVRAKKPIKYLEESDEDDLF
Method: We also performed TOP 11-catalyzed relaxation of plasmid DNA assays(Fig. 5-7) to evaluate if compounds could inhibit TOP II. […] The IC50 value of compounds 7, N7, N8, N14, N15, N18, and N19 were about 10, 10, 1, 10, 5, 1, and 1 µM, respectively (detect by TopoGEN TG2005H, TG-2000H-1).

Structure (SMILES)	IC50 [1]	IC50 [2]	inhibitory effects in TOP I activity assay compared with CPT [3]	inhibitory effects on TOP II compared with the positive agent VP-16 [4]
O=c1c2cc(Cl)ccc2sc2c(N3CCNCC3)nc3ccccc3c12 [Compound 7, 10-Chloro-6-(piperazin-1-yl)-12H-thiochromeno[2,3-c]quinolin-12-one]	5.01 ± 1.68 µM	2.84 ± 0.64 µM	more potent inhibitory effects than CPT	more potent inhibitory effects than the positive agent VP-16
CN(C)CCNc1nc2ccccc2c2c(=O)c3cc(Cl)ccc3sc12 [Compound N7, 10-Chloro-6-((2-(dimethylamino)ethyl)amino)-12H-thiochrome no[2,3-c]quinolin-12-one]	5.94 ± 3.45 µM	2.25 ± 0.61 µM	more potent inhibitory effects than CPT	more potent inhibitory effects than the positive agent VP-16
CCN(CC)CCNc1nc2ccccc2c2c(=O)c3cc(Cl)ccc3sc12 [Compound N8, 10-Chloro-6-((2-(diethylamino)ethyl)amino)-12H-thiochromen o[2,3-c]quinolin-12-one]	1.73 ± 0.72 µM	1.11 ± 0.69 µM	–	more potent inhibitory effects than the positive agent VP-16
NCCNc1nc2ccccc2c2c(=O)c3cc(Cl)ccc3sc12 [Compound N14, 6-((2-Aminoethyl)amino)-10-chloro-12H-thiochromeno[2,3-c]q uinolin-12-one]	1.8 ± 0.4 µM	1.64 ± 0.55 µM	more potent inhibitory effects than CPT	more potent inhibitory effects than the positive agent VP-16
O=c1c2cc(Cl)ccc2sc2c(NCCNCCO)nc3ccccc3c12 [Compound N15, 10-Chloro-6-((2-((2-hydroxyethyl)amino)ethyl)amino)-12H-thio chromen[2,3-c]quinolin-12-one]	3.81 ± 1.88 µM	3.44 ± 1.81 µM	more potent inhibitory effects than CPT	more potent inhibitory effects than the positive agent VP-16
CN(C)CCCNc1nc2ccccc2c2c(=O)c3cc(Cl)ccc3sc12 [Compound N17, 10-Chloro-6-((3-(dimethylamino)propyl)amino)-12H-thiochrom eno[2,3-c]quinolin-12-one]	2.7 ± 0.16 µM	2.27 ± 0.09 µM	more potent inhibitory effects than CPT	–
CCN(CC)CCCNc1nc2ccccc2c2c(=O)c3cc(Cl)ccc3sc12 [Compound N18, 10-Chloro-6-((3-(diethylamino)propyl)amino)-12H-thiochrome no[2,3-c]quinolin-12-one]	3.53 ± 1.05 µM	2.22 ± 0.21 µM	more potent inhibitory effects than CPT	more potent inhibitory effects than the positive agent VP-16
O=c1c2cc(Cl)ccc2sc2c(NCCCNCCO)nc3ccccc3c12 [Compound N19, 10-Chloro-6-((3-((2-hydroxyethyl)amino)propyl)amino)-12H-th iochromeno[2,3-c]quinolin-12-one]	1.5 ± 1.32 µM	1.98 ± 0.72 µM	–	more potent inhibitory effects than the positive agent VP-16
O=c1c2cc(Cl)ccc2sc2c(NCc3ccccc3)nc3ccccc3c12 [Compound N25, 6-(Benzylamino)-10-chloro-12H-thiochromeno[2,3-c]quinolin-12-tone]	13.5 ± 0.69 µM	11.2 ± 1.55 µM	more potent inhibitory effects than CPT	–
COc1ccccc1CNc1nc2ccccc2c2c(=O)c3cc(Cl)ccc3sc12 [Compound N28, 10-Chloro-6-((2-methoxybenzyl)amino)-12H-thiochromeno[2,3-c]quinolin-12-one]	9.61 ± 4.88 µM	6.01 ± 3.31 µM	–	–
COc1ccc(CNc2nc3ccccc3c3c(=O)c4cc(Cl)ccc4sc23)cc1OC [Compound N29, 10-Chloro-6-((3,4-dimethoxybenzyl)amino)-12H-thiochromeno [2,3-c]quinolin-12-one]	4.86 ± 0.99 µM	6.2 ± 2.52 µM	–	–
O=c1c2cc(Cl)ccc2sc2c(NCCc3ccccc3)nc3ccccc3c12 [Compound N30, 10-Chloro-6-(phenethylamino)-12H-thiochromeno[2,3-c]quinol in-12-one]	> 15 µM	> 15 µM	–	–
COc1ccc(CCNc2nc3ccccc3c3c(=O)c4cc(Cl)ccc4sc23)cc1 [Compound N31, 10-Chloro-6-((4-methoxyphenethyl)amino)-12H-thiochromeno[2,3-c]quinolin-12-one]	> 15 µM	> 15 µM	–	–
Nc1ccc(CCNc2nc3ccccc3c3c(=O)c4cc(Cl)ccc4sc23)cc1 [Compound N32, 6-((4-Aminophenethyl)amino)-10-chloro-12H-thiochromeno[2,3-c]quinolin-12-one]	13.6 ± 1.39 µM	10.1 ± 0.94 µM	–	–
NC(N)=Nc1nc2ccccc2c2c(=O)c3cc(Cl)ccc3sc12 [Compound N33, 2-(10-Chloro-12-oxo-12H-thiochromeno[2,3-c]quinolin-6-yl)gu anidine]	8.11 ± 1.37 µM	6.13 ± 6.98 µM	–	–
O=c1c2cc(Cl)ccc2sc2c(NN3CCCCC3)nc3ccccc3c12 [Compound N34, 10-Chloro-6-(piperidin-1-ylamino)-12H-thiochromeno[2,3-c]qu inolin-12-one]	9.06 ± 1.95 µM	8.22 ± 1.02 µM	–	–
COc1cc([C@@H]2c3cc4c(cc3[C@@H](O[C@@H]3O[C@@H]5CO[C@@H](C)O[C@H]5[C@H](O)[C@H]3O)[C@H]3COC(=O)[C@H]23)OCO4)cc(OC)c1O [Etoposide (VP-16), Etoposide, reference compound]	0.4 ± 0.01 µM	4.33 ± 0.86 µM	–	–
O=C1c2c(O)ccc(O)c2C(=O)c2c(NCCNCCO)ccc(NCCNCCO)c21 [Mitoxantrone, reference compound]	0.1 ± 0.01 µM	0.39 ± 0.02 µM	–	–

Reference: patent EP3002287B1, “Thiochromeno[2,3-c]quinolin-12-one derivatives and their use as topoisomerase inhibitors” (National Defense Medical Center, priority 2014, dated 2016)
